Measured values: the NIST ThermoML archive (doi:10.1021/je900669t)
± gives the expanded uncertainty stated by the source.

How the values were obtained:
[1] = refractive index (Na D-line) (dimensionless); conditions: 293.15 K; 101.33 kPa; Liquid; Standard Abbe refractometry
[2] = Liquid; for mass density: 298.15 K, 101.33 kPa; for Normal boiling temperature: Ebulliometric method (Recirculating still)

refractive index [1]	mass density [2]	Normal boiling temperature [2]	SMILES
1.4489 ± 0.0005	971.7 ± 1.4 kg/m3	140.5 ± 0.2 °C	CC(=O)CC(C)=O [2,4-pentanedione]
1.3715 ± 0.0005	1046.9 ± 1.6 kg/m3	118.29 ± 0.2 °C	CC(=O)O [acetic acid]
1.4259 ± 0.0005	779.6 ± 7.6 kg/m3	80.8 ± 0.2 °C	C1CCCCC1 [cyclohexane]
